The source of these data is patent US11472752B2, “Method for making resistant to thiodicarb (carbamate) and bifenthrin (pyrethroid) a consortium of fungi that solubilise phosphorous and antagonise certain pathogens, for use in liquid biofertilisers for foliar and/or soil application” (priority 2018, dated 2022).

Assay in all cases: Stagewise adaptation on growth media poisoned with thiodicarb or bifenthrin; mortality rate
Holding throughout (type): cell-based

Data set [1] has as its system Beauveria bassiana. The following applies: for Resistant to: FINAL: final characteristics after selective process. How it is done:
(§1) Strains of sulphur sulubilizer fungi, antagonist to some pathogens: • a) Paecilomyces sp. • b) Beauveria bassiana • c) Trichoderma harzianum • d) Metarhizium anisopliae Preparation for Stage Development 1. Glass material is sterilized in an autoclave. 2. The required amount of growth media is prepared with 3% rice broth (P/V), and 9% of a solution of molasses, sterilized at 121° C. for 15 minutes at a pressure of 15 lb. 3. Lethal dose (LD) applied to a hectare is established, for thiodicarb as well as bifenthrin. 10 Petri dishes are prepared with 0.1 LD of thiodicarb of bifenthrin. Dishes are incubated at 25° C. for 72 hours with cold light. 4. From the previous suspension with a known concentration, (107) the growth media is seeded with 1 ml, the pH adjustment is performed at 5.5 with a sterile 10 citric acid solution. 5. Stir at 110 rpm and 27 OC for 7 days. 6. The process is monitored controlling the variables, mainly the pH and biomass concentration, adjusting the pH to 5.5 during the entire process. 7. On the fourth day of the process, the foam formation is controlled with 1% soy oil and the stirring speed. Methodology a. Petri dishes are placed inside the laminar flow chamber along with the diluted samples, to seed microorganisms in the dishes, a one ml sample of the strain is taken with an automated pipette, 10^−1 and 10^−2 solutions are performed, and each solution is homogenized. b. Having the petri dishes with the sterile and cold growth media, it is homogenized with 6 right to left movements, 6 clockwise movements, 6 counterclockwise movements and 6 front to back movements over a flat horizontal surface until the inoculum is completely integrated into the media, stand until it solidifies and each dish is covered with parafilm to avoid contamination during incubation. c. Dishes with thiodicarb and Bifenthrin are placed inside the incubator at 25° C. for 72 hours with a cold light lamp. d. Inoculated dishes are incubated for 15 days, the product concentration impact is determined on mycelial growth, sporulation and germination (12 hours of incubation). e. The residual impact of the product is reviewed after 7 days in the malt agar, dextrose and PDA agar media, enriched with minerals. f. If there is no growth over 10%, the process is repeated until a mortality under 90% is obtained. g. […] After that, the suspension is stirred for 30 seconds in a Vortex tube mixer. The spore concentration is measured in a Newbawer Chamber and the results are reported in conidia per […]. i. From the 10 Petri dishes for each microorganism, the one with the lowest mortality rate is the one that will continue with the following study. j. The study is performed again using this percentage until coverage increases and so on, the addition of thiodicarb and bifenthrin is alternated with the LD in intervals of 0.1 LD; all these experiments have been designed with the experimental strains and a control. k. With the data obtained from the mycelial growth and sporulation, the percentage of inhibition of gradual growth is obtained, the data is transformed for its analysis with the expression 2 arc sin, and the sporulation through the equation Log 10(x+10). A two-way classification analysis of variance is applied and later the Turkey test is performed using a 5% probability.
(§2) For each species, stages analyzing times required to cover the entire field were performed. Once this time was determined, they were left to rest for 10 days to be later subject to the following protocol:
Stages begin with the conditions in its natural habitat: pH—7.0 a 7.5, Humidity: 30 to 40% and humidity is increased up to 70% and a Temperature from 28 to 30° C., maintained during all the research term. These conditions are the starting point to adapt the strain to thiodicarb (carbamate) and bifenthrin (pyrethroid). During all stages, we will be using a cold light lamp to adapt the microorganism to sunlight.

In data set [2] the test system is Metarhizium anisopliae. The settings on record: for Resistant to: FINAL: final development characteristics. How it is done: as §1
(§3) For each species, stages analyzing times required to cover the entire field were performed. Once this time was determined, they were left to rest for 10 days to be later subject to the following protocol: […]

In data set [3] the test system is Paecilomyces sp. As for the experimental part: Strains of sulphur sulubilizer fungi, antagonist to some pathogens: • a) Paecilomyces sp. • b) Beauveria bassiana • c) Trichoderma harzianum • d) Metarhizium anisopliae Preparation for Stage Development 1. Glass material is sterilized in an autoclave. 2. The required amount of growth media is prepared with 3% rice broth (P/V), and 9% of a solution of molasses, sterilized at 121° C. for 15 minutes at a pressure of 15 lb. 3. Lethal dose (LD) applied to a hectare is established, for thiodicarb as well as bifenthrin. 10 Petri dishes are prepared with 0.1 LD of thiodicarb of bifenthrin. Dishes are incubated at 25° C. for 72 hours with cold light. 4. […] The process is monitored controlling the variables, mainly the pH and biomass concentration, adjusting the pH to 5.5 during the entire process. […] Inoculated dishes are incubated for 15 days, the product concentration impact is determined on mycelial growth, sporulation and germination (12 hours of incubation). e. […] The spore concentration is measured in a Newbawer Chamber and the results are reported in conidia per square millimeter. i. […]
as §3

The subject of data set [4] is Trichoderma harzianum. How it is done:
as §1, §2
Procedures begin with the conditions in its natural habitat: Humidity: 30 to 40% and humidity is increased up to 70% and a Temperature from 28 to 30° C., maintained during all the research term. pH from 7.0 to 7.5. These conditions are the starting point to adapt the strain to thiodicarb and bifenthrin.

[5] abbreviates: stages E-33 and E-34, 0.9 LD (0.00016 gr).
Where [6] appears, read: stages E-35 and E-36, 1 LD (0.00018 gr).
The mark [7] stands for this setting: stages E-3 and E-4, 0.2 LD (0.000035 gr).
Setting [8] is: stages E-25 and E-26, 0.7 LD (0.00012 gr).
The mark [9] stands for this setting: stages E-43 and E-44, 1.2 LD (0.00022 gr).
[10] abbreviates: stages E-49 and E-50, 1.1 LD (0.00024 gr).
Setting [11] is: stages E-51 and E-52, 1.2 LD (0.00026 gr).

Regarding `Cc1c(COC(=O)[C@@H]2[C@H](/C=C(\Cl)C(F)(F)F)C2(C)C)cccc1-c1ccccc1` (racemic) [bifenthrin, 2-methyl biphenyl-3-ilmetil(2)-(1RS,3RS)-3-(2-chlorine 3,3,3-trifluoropropene)-2,2-dimethyl-cyclo-propane-carboxylate], the “Resistant to: FINAL” value in data set [1] is reported as 1 LD of thiodicarb; in data set [2] it was 1.3 LD of.
For the molecule `CS/C(C)=N\OC(=O)N(C)SN(C)C(=O)O/N=C(\C)SC` [thiodicarb], the mortality rate in data set [3] (setting [5]) is recorded as 8%; in data set [3] (setting [6]), 15%; in data set [1] (stages E-1 and E-2, 0.1 LD (0.0000175 gr), 32% humidity), 73%; in data set [1] (setting [7]), 73-79%; in data set [1] (setting [8]), 23%; in data set [1] (setting [6]) it was 26%. Besides, the mortality rate was 20% in data set [1] (setting [9]); 14% in data set [1] (setting [10]); 11% in data set [1] (setting [11]); 82% in data set [4] (stage E-1, 0.1 LD (0.0000175 gr), until day 68 of incubation); 85% in data set [4] (stage E-2, 0.1 LD (0.0000175 gr)); 75% in data set [4] (stages E-11 and E-12, 0.4 LD (0.000070 gr)). Further, the mortality rate in data set [4] (stages E-19 and E-20, 0.6 LD (0.00011 gr)) is 66%; in data set [4] (setting [8]), 60%; in data set [4] (setting [9]) it was 18%; in data set [4] (setting [10]), 10%; in data set [4] (setting [11]), 8%; in data set [2] (setting [7]), 55%. The mortality rate in data set [2] (setting [5]) and in data set [2] (setting [6]) was 15% in each case. In addition, the “Resistant to: FINAL” value in data set [1] is 1 LD of thiodicarb; in data set [2], 1.3 LD of.
